RP-LC retention time data for 33 molecules are collected here from the METLIN SMRT retention time set (Domingo-Almenara et al. 2019).

This series in a line: gradient 5% acetonitrile 3 min, to 50% in 2 min, to 85% in 15 min, held 3 min, 100 µL/min. To be noted: column: Zorbax Extend-C18 2.1 x 50 mm; eluents: water / acetonitrile, 0.1% formic acid. The gist of the method: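 The system's dead and dwell volumes were 40 μL and 900 μL, with a Zorbax Extend-C18 column (2.1 × 50 mm, 1.8 μm) run at 100 μL/min in water and acetonitrile containing 0.1% formic acid each. Pure standards were analyzed in mixtures of ~100 molecules by HPLC–quadrupole time-of-flight mass spectrometry in positive and negative ionization mode. Retention time was assigned from computationally picked, manually inspected adduct peaks.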
`CC(C)Oc1ccc(CNC(=O)c2nnc(-c3ccc(S(=O)(=O)N4CCCC4)cc3)o2)cc1` displayed an RP-LC retention time of 1000 s.

The molecule `CCC(C)CNCC(=O)N1CCc2sccc2C1COc1cccc(C)c1` (stereo not drawn) had an RP-LC retention time of 916 s.

`COC(=O)CSCC(=O)Nc1nccs1`: the RP-LC retention time stood at 610 s.

As to `N#Cc1ccc(S(=O)(=O)N2CCCOCCNC(=O)[C@@H]3CCC[C@@H]32)cc1`, the RP-LC retention time was 714 s.

`O=C(Nc1ccccc1F)C1CCN(S(=O)(=O)c2cc(C(=O)N3CCCC3)cs2)CC1` had an RP-LC retention time of 790 s.

For the molecule `CC(C)CC(=O)NCCc1nc2cccnc2n1-c1ccccc1`, the RP-LC retention time was 661 s.

`Cc1ccc(-c2nc(Nc3cccc(Cl)c3)sc2C)cc1` gave an RP-LC retention time of 1320 s.

Take `CC(C)c1nnc(-c2cccnc2N2CCN(C(=O)c3ccc4cc[nH]c4c3)CC2)o1`: the RP-LC retention time is 777 s.

`CC(C)(C)c1noc(-c2ccnc(-n3cnc(C(=O)N4CCSCC4)c3)c2)n1` displayed an RP-LC retention time of 952 s.

`COCCN1C(=O)Cc2ccccc2C1C(=O)NCc1ccccc1` (stereo not drawn) displayed an RP-LC retention time of 684 s.

`COC(=O)c1ccc(Cn2cnc3nc4c(cc3c2=O)CC(C)CC4)cc1` (stereo not drawn) returned an RP-LC retention time of 852 s.

`COc1ccc2[nH]cc(CCNC(=O)c3cnn(-c4ccc(Cl)cc4)c3C3CCNCC3)c2c1`: the RP-LC retention time came out at 694 s.

`Cc1ccc(NC(=O)C2CCc3sc(C(=O)N4CCOCC4)cc3C2)cc1` (stereo not drawn) registered an RP-LC retention time of 842 s.

In the case of `O=S(=O)(c1cc(-c2nnc(C3CCCC3)o2)co1)N1CCC(N2CCCCC2)CC1`, the RP-LC retention time was 670 s.

Molecule `Cc1cc(C)c2oc(C(=O)NCC(c3ccccc3)N(C)C)cc(=O)c2c1` (stereo not drawn) showed an RP-LC retention time of 636 s.

In the case of `COc1ccc(-c2cn3c(CC(=O)NCc4cccs4)csc3n2)cc1OC`, the RP-LC retention time is 678 s.

The molecule `O=C(c1ccc(Cl)s1)N1CCN(c2nnc3ccccn23)CC1` came in with an RP-LC retention time of 675 s.

Turning to `CCOc1ccc(-c2csc(C)n2)cc1S(=O)(=O)NCc1ccccc1`, the RP-LC retention time was 996 s.

Molecule `CCn1cc(CC(=O)NC(C)C)c2cccnc21` came in with an RP-LC retention time of 595 s.

The molecule `COc1cc(C(=O)Nc2nc(-c3ccc(C)cc3)c(C)s2)c(Br)c(OC)c1OC` yielded an RP-LC retention time of 1190 s.

In turn, `O=C(Cc1nnc2c(-c3nc(C4CC4)no3)cccn12)N1CCCCCC1` displayed an RP-LC retention time of 674 s.

The molecule `Cc1nc(C2(C)CCN(S(=O)(=O)c3cc(F)ccc3C)CC2)no1` yielded an RP-LC retention time of 948 s.

`CCS(=O)(=O)N1CC(n2cc(C(=O)NCC3CC3)nn2)C1` yielded an RP-LC retention time of 664 s.

Turning to `COc1cc(OC)cc(C(=O)Nc2nc3c(s2)Cc2c(Br)ccc(OC)c2-3)c1`, the RP-LC retention time was found to be 1210 s.

`CCCC(C)C(=O)N1CCCN(C2=NS(=O)(=O)C(c3ccc(C)cc3)=C2C)CC1` (stereo not drawn) had an RP-LC retention time of 884 s.

In turn, `COc1ccc(Cl)cc1N1CC(c2nc(-c3ccncc3)no2)CC1=O` (stereo not drawn) showed an RP-LC retention time of 752 s.

For the molecule `CC(O)(CNS(=O)(=O)c1cccnc1)c1ccco1` (stereo not drawn), the RP-LC retention time was 604 s.

With `O=S(=O)(c1cccnc1)N1CCC(c2ccccc2)C1` (stereo not drawn), the RP-LC retention time is 773 s.

For the molecule `Cc1cc(NC(=O)C2CCN(c3ccc(-c4cccs4)nn3)CC2)sn1`, the RP-LC retention time came out at 604 s.

`O=C([C@@H]1C[C@H](F)CN1S(=O)(=O)c1ccc2c(c1)OCCO2)N1CCCCC1`: the RP-LC retention time is 759 s.

The molecule `CCN1CCC(CCNC(=O)C2CN(C(=O)c3cccs3)CC23CCCCC3)CC1` (stereo not drawn) had an RP-LC retention time of 625 s.

Regarding `COc1ccc([C@H]2Sc3ccccc3N(CCN(C)C)C(=O)[C@H]2OC(C)=O)cc1`, the RP-LC retention time came to 704 s.

`COC(=O)[C@@H]1[C@H]2C[C@@H]3c4[nH]c5ccccc5c4CCN3C[C@@H]2CC[C@@H]1O` had an RP-LC retention time of 660 s.
